Read-outs that look alike come from different tables or passages of the source.
Legend:
lipid protein adducts = assay: Hemin-induced lipid protein adduct formation (Bt-AA, streptavidin-HRP Western blot) in primary neurons; type: cell-based, mouse; conditions: for AA-protein adduct formation: non-protective doses: NAC 0.1 mM, vitamin E 1 μM, zileuton 1 μM; for Lipid protein adduct formation: protective doses: NAC 1 mM, vitamin E 10 μM, zileuton 10 μM
Protocol: Electrophilic attack by ALOX5 products could alter cellular protein-mediated signaling to trigger cell death. Arachidonic acid (AA) tagged with biotin (Bt-AA) was used to monitor the formation of covalent protein adducts. To test whether hemin was sufficient to catalyze the formation of protein-reactive lipid species, primary neurons were treated with hemin at concentrations of 5 μM-50 μM for 4 h. Lipid protein adducts were detected by Western blots probed with Streptavidin-HRP. Bt-AA incorporation into protein increased with increasing concentrations of hemin, and significant lipid protein adducts were detected at 50 μM hemin. […] The blot is representative from replicates of three experiments. The arrow indicates the decrease in lipid protein adduct formation.

primary cortical neurons = assay: cells; type: cell-based, mouse; conditions: for Protection against hemin-induced toxicity (in words): MTT
Protocol: Primary cortical neuronal cultures: Primary cortical neurons were collected from embryonic (E15) CD1 mice. The cortices of the mice were dissected, homogenized, and plated in minimum essential medium containing 10% fetal bovine serum (FBS), 5% horse serum, and 1% penicillin/streptomycin in 96-well plates, 6-well plates, or 10-cm dishes. The neurons were maintained at 37° C. with 5% CO2. All experiments were conducted 24 hours after plating.
In vitro ICH model: Ferroptosis is a type of programmed cell death that is dependent on iron, and is characterized by the accumulation of lipid peroxides. Ferroptosis is genetically and biochemically distinct from other forms of regulated cell death such as apoptosis. Ferroptosis is initiated by the failure of the glutathione-dependent antioxidant defenses, resulting in unchecked lipid peroxidation and eventual cell death.
Cell death was induced in primary cortical neurons by treating the neurons with hemin, a blood breakdown product. For the neuroprotection studies, cells were treated with hemin (100 μM) in the presence of NAC (0.1 mM to 1mM), 6-hydroxy-2,5,7,8-tetramethylchroman-2-carboxylic acid (trolox; 0.1 μM to 100 μM), β-carotene (0.1 μM to 100 μM) α-lipoic acid (0.01 mM to 2 mM), glutathione ethyl ester (1 mM to 10 mM), oxothiazolidine-4-carboxylate (1 mM to 10 mM), cystamine (0.1 μM to 10 μM), or nordihydroguaiaretic acid (0.1 μM to 10 μM). Cell viability was analyzed 24 h after treatment. The cells were rinsed with warm phosphate-buffered saline (PBS) and assessed using an MTT assay. The fidelity of the MTT assays in measuring viability was verified by calcein-AM/ethidium homodimer-1 staining (Live/Dead assay).
The ability of NAC to protect cells was investigated in a hemin model of hemorrhagic stroke. The in vitro model of ICH involved the administration of hemin, a breakdown product of hemoglobin from lysed blood, to trigger cell death. Treatment of primary cortical neurons with 100 μM hemin induced widespread cell death through a ferroptotic mechanism, which was quantified with MTT and qualitatively observed using live/dead staining. Living cells were labeled with calcein-AM, and dead cells were labeled with ethidium homodimer. […] Scale bars: 100 μm.
A systematic pharmacological screening of oxidized lipid species inhibitors in the context of hemin-induced cell death was performed in primary cortical neurons. Primary cortical neurons were co-treated with hemin and a non-specific or enzymatic lipid peroxidation inhibitor. The MTT assays were performed 18 h following the co-treatment.

[1] = test system: collagenase-induced mouse model of ICH; assay: In vivo collagenase-induced mouse model of ICH (Fluoro-Jade staining, corner task, adhesive tape removal task, hematoma size)
Protocol: In vivo collagenase-induced mouse model of ICH: Male C57BL/6 mice (8 to 10 weeks of age) or mice (10 to 12 weeks of age) were anesthetized with isoflurane (2% to 5%) and placed on a stereotaxic frame. During the procedure, the animal's body temperature was maintained at 37° C. with a homeothermic blanket. 1 mL of collagenase (0.075 IU) was infused into the right striatum at a flow rate of 0.120 μL/min using a Nanomite® syringe pump and a syringe. Relative to the bregma point, the stereotaxic coordinates of the injection were: lateral, −0.20; anteroposterior, 0.62; and dorsoventral, −0.40. In control animals, 1 mL of saline was infused. The treatment group received NAC (75 mg/kg or 300 mg/kg in normal saline, I.P.) once a day for 7 days starting at 2 h after collagenase infusion. For combinatorial studies, NAC (40 mg/kg, I.P.) and PGE 2 (10 μM, ICV) were administered to the mice 2 h after the collagenase injection, and then NAC (40 mg/kg) was administered once daily for 7 days. The control groups received the vehicle (normal saline) alone. The animals were randomized to sham or ICH groups. The identities of the mice that received vehicle or NAC were masked to surgeons who performed the experiments. […] Proper postoperative care was provided until the animals recovered completely.
Behavioral analysis: The corner task assessed integrated sensorimotor function in the stimulation of vibrissae (sensory neglect) and rearing (motor response). Mice were placed between two cardboard pieces that formed a corner with a 30° angle. While maintaining the 30° angle, the boards were gradually moved toward the mouse until the mouse approached the corner, reared upward, and turned 180° to face the open end. The direction (left or right) in which the mouse turned was recorded for each trial. Ten trials were performed for each mouse.
For the sensory neglect task (adhesive tape removal task), adhesive tape was placed on the planter region of the forward paw (right and left) of each mouse. The time from which the tape was applied to when the mouse successfully removed the tape was recorded for each paw. A maximum of 300 s for each paw was allowed.
Fluoro-Jade® B staining: Neurodegeneration of cells was assessed in mice with collagenase-induced ICH using Fluoro-Jade® B staining. 40 μM brain sections were mounted on gelatin-coated slides and dried at room temperature overnight. The sections were immersed in a graded series of alcohol solutions before being immersed in a 0.06% potassium permanganate (KMnO4) solution for 15 min. Sections were washed with water before being immersed in a 0.001% Fluoro-Jade® staining solution with gentle shaking in the dark for 30 min. The sections were then washed with water and dried overnight at room temperature in the dark before being dehydrated and coverslipped with DPX. Fluoro-Jade® B staining was examined within perihematoma or hematoma regions using a fluorescence microscope. Quantification of Fluoro-Jade® B staining was performed using three brain sections (anterior to posterior of hematoma) using Metamorph analysis.
The vehicle or NAC was then administered daily up to 7 days following the ictus. Neuronal loss was determined using a non-specific marker of neurodegeneration, Fluoro-Jade® staining. […] Mouse behavior was assessed using a corner task (spatial neglect) and an adhesive tape removal task (sensory neglect). Mouse behavior was assessed on day 1, 3, and 7 after the induction of ICH.

recombinant ALOX5 = molecular target: T1, recombinant ALOX5 (Homo sapiens, UniProt P09917); assay: Lipoxygenase UV/Vis-based IC50 assay with recombinant ALOX5; type: biochemical; conditions: test tube assay
T1 sequence (P09917 1-674): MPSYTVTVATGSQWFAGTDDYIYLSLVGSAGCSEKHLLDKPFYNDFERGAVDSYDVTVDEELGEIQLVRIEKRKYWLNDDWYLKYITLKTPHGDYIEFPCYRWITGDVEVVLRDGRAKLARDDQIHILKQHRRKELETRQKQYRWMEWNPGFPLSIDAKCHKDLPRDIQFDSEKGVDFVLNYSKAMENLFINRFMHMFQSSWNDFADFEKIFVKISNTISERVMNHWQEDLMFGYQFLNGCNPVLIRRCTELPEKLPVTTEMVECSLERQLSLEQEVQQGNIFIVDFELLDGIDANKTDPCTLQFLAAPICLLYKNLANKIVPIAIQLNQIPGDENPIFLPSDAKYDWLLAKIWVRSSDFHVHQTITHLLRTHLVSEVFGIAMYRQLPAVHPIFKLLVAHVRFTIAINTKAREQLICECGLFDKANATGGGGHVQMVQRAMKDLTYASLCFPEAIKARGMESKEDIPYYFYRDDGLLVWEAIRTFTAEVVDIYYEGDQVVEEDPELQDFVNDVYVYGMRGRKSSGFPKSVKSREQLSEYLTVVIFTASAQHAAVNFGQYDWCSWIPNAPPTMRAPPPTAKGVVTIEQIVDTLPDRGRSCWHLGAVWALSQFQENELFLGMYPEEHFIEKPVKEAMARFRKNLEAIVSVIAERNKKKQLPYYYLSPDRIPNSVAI
Protocol: Lipoxygenase UV/Vis-based IC50 assay: Inhibition potencies were determined by following the formation of conjugated diene products, 5-HpETE [ε=27000 M^−1 cm^−1 for AA turnover) at 234 nm using a UV/Vis spectrophotometer. All reaction mixtures were 2 mL in volume, and the reaction mixtures were constantly stirred using a magnetic stir bar at room temperature (23° C.). All reactions were carried out in a buffer containing 200 μM ATP and 10 μM AA. The AA concentration of a sample was verified by full turnover with soybean-1 lipoxygenase and quantifying the product concentration. Inhibitors were stored in DMSO at −20° C. Enzymatic reactions were initiated by adding approximately 100 nM-300 nM ammonium sulfate-precipitated wildtype enzyme. IC50 values were obtained by determining the enzymatic rate at a minimum of five inhibitor concentrations, plotting the enzymatic rate against inhibitor concentration, and performing a hyperbolic saturation curve fit. Inhibitor concentrations were assayed in duplicate or triplicate.
Significance was determined by two-way ANOVA and Bonferroni's post hoc test.

[2] = primary cortical neurons, 100 μM hemin
[3] = Mus musculus, Primary cortical neuron, protection from 100 μM hemin, MTT (Table 2), read-out: EC50
[4] = protection from 100 μM hemin, MTT (Table 2), read-out: EC50
[5] = NAC 40 mg/kg i.p. and/or PGE2 10 μM ICV, days 1, 3, 7

## Cc1c(C)c2c(c(C)c1O)CC[C@@](C)(CCC[C@H](C)CCC[C@H](C)CCCC(C)C)O2 [vitamin E, α-tocopherol]
Lipid protein adducts
  AA-protein adduct formation: did not decrease AA-protein adduct formation
  Lipid protein adduct formation: decreased lipid protein adduct formation

## COc1ccc2c(c1)c(CC(=O)O)c(C)n2C(=O)c1ccc(Cl)cc1 [Indomethacin]
Primary cortical neurons; [2]
  Protection against hemin-induced toxicity (in words): failed to protect against hemin toxicity

## CC(Cc1ccc(O)c(O)c1)C(C)Cc1ccc(O)c(O)c1 (centres unmarked) [Nordihydroguaiaretic acid]
Primary cortical neurons; [3]
  EC50: 5 µM
Primary cortical neurons; [2]
  Protection against hemin-induced toxicity (in words): prevented hemin-induced death as effectively as NAC

## CCOC(=O)CNC(=O)[C@H](CS)NC(=O)CC[C@H](N)C(=O)O [Glutathione ethyl ester]
Primary cortical neurons; [2]
  Protection against hemin-induced toxicity (in words): prevented hemin-induced death as effectively as NAC
Primary cortical neurons; [4]
  EC50: 2500 µM

## CCCCC(C)(C)[C@H](O)/C=C/[C@H]1[C@H](O)CC(=O)[C@@H]1C/C=C\CCCC(=O)O [dmPGE2, 16,16-dimethyl PGE2]
Primary cortical neurons; [2]
  Protection against hemin-induced toxicity (in words): dose-dependently abrogated hemin-induced toxicity
[1]; NAC 40 mg/kg i.p. daily 7 days and/or dmPGE2 10 μM ICV 2 h post-injury
  Neuronal degeneration in perihematomal regions (Fluoro-Jade staining): no significant effect

## CC(=O)Oc1ccccc1C(=O)O [Aspirin]
Primary cortical neurons; [2]
  Protection against hemin-induced toxicity (in words): failed to protect against hemin toxicity

## CCCCC[C@H](O)/C=C/[C@H]1[C@H](O)CC(=O)[C@@H]1C/C=C\CCCC(=O)O [PGE2, prostaglandin E2]
[1]; [5]
  Sensory neglect (adhesive tape removal task) behavioral deficits: no effect
  Spatial neglect (corner task) behavioral deficits: no effect

## CCCCS(=N)(=O)CCC(N)C(=O)O (centres unmarked) [BSO, buthionine sulfoximine]
Primary cortical neurons; co-treatment with NAC and BSO
  Effect on NAC-induced protection from hemin: reversed NAC-induced protection

## CC1=C(/C=C/C(C)=C/C=C/C(C)=C/C=C/C=C(C)/C=C/C=C(C)/C=C/C2=C(C)CCCC2(C)C)C(C)(C)CCC1 [β-carotene]
Primary cortical neurons; [2]
  Protection against hemin-induced toxicity (in words): protected against hemin-induced toxicity
Recombinant ALOX5
  Inhibition of ALOX5 activity: did not inhibit ALOX5 activity

## Cc1c(C)c2c(c(C)c1O)CCC(C)(C(=O)O)O2 (centres unmarked) [trolox, 6-hydroxy-2,5,7,8-tetramethylchroman-2-carboxylic acid]
Primary cortical neurons; [2]
  Protection against hemin-induced toxicity (in words): abrogated hemin-induced toxicity in a dose-dependent manner

## Hemin
Primary cortical neurons
  % Viability: 50.14%
Primary cortical neurons; hemin itself (toxic stimulus), Table 2 EC50 column, read-out: EC50
  EC50: 100 µM

## CC(=O)N(O)C/C=C/c1cccc(Oc2ccccc2)c1 [BW A4C]
Primary cortical neurons; 100 μM hemin, primary cortical neurons, read-out: EC50 for reduction of hemin-induced toxicity/ferroptosis
  EC50: 5 µM

## CCC(=O)NC(c1cccs1)c1cc([N+](=O)[O-])c2cccnc2c1O (centres unmarked) [NCTT-956]
Primary cortical neurons; [2]
  Protection against hemin-induced toxicity (in words): failed to protect against hemin toxicity

## O=C1NC(C(=O)O)CS1 (centres unmarked) [Oxothiazolidine-4-carboxylate]
Primary cortical neurons; [2]
  Protection against hemin-induced toxicity (in words): prevented hemin-induced death as effectively as NAC
Primary cortical neurons; [4]
  EC50: 2500 µM

## CC(c1cc2ccccc2s1)N(O)C(N)=O (centres unmarked) [Zileuton]
Primary cortical neurons; Mus musculus, Primary cortical neuron, 100 μM hemin, primary cortical neurons, read-out: EC50 for reduction of hemin-induced toxicity/ferroptosis
  EC50: 7 µM
Recombinant ALOX5
  Inhibition of ALOX5 activity: effective in inhibiting ALOX5
Lipid protein adducts
  AA-protein adduct formation: did not decrease AA-protein adduct formation
  Lipid protein adduct formation: decreased lipid protein adduct formation

## c1ccc2c(c1)SCc1c-2[nH]c2ccccc12 [PD146176]
Primary cortical neurons; [2]
  Protection against hemin-induced toxicity (in words): failed to protect against hemin toxicity

## NCCSSCCN [Cystamine]
Primary cortical neurons; [3]
  EC50: 7.5 µM
Primary cortical neurons; [2]
  Protection against hemin-induced toxicity (in words): prevented hemin-induced death as effectively as NAC

## C#CCOc1ccccc1CCCCCC(=O)NS(C)(=O)=O [MS-PPOH]
Primary cortical neurons; [2]
  Protection against hemin-induced toxicity (in words): failed to protect against hemin toxicity

## CC(C=Cc1cccc(Oc2ccc(F)cc2)c1)N(O)C(N)=O (centres unmarked) [BW B70]
Primary cortical neurons; [2]
  Protection against hemin-induced toxicity (in words): significantly reduced hemin-induced toxicity

## O=C(O)CCCCC1CCSS1 (stereo not drawn) [α-Lipoic acid, α-lipoic acid]
Primary cortical neurons; [2]
  Protection against hemin-induced toxicity (in words): failed to prevent hemin toxicity at any dose examined

Reference: patent US11963939B2, “Use of N-acetylcysteine to treat central nervous system disorders” (Neuronasal, Inc., priority 2017, dated 2024)
